Test results reported in ChEMBL document CHEMBL1142141, “Molecular mechanism of flucytosine resistance in Candida lusitaniae: contribution of the FCY2, FCY1, and FUR1 genes to 5-fluorouracil and fluconazole cross-resistance” (2007).
Converted amounts (≈) assume the structure as drawn.

Columns and labels:
Format in all cases: functional
Clavispora lusitaniae [1] = experiment: Antifungal activity against Candida lusitaniae 6936 URA3[D95V] derived null mutant fcy1delta::URA3 by microdilution assay
Clavispora lusitaniae [2] = experiment: Antifungal activity against Candida lusitaniae 6936 by microdilution assay
Clavispora lusitaniae [3] = experiment: Antifungal activity against Candida lusitaniae 6936 URA3[D95V] derived null mutant fcy2delta::URA3 by microdilution assay
Clavispora lusitaniae [4] = experiment: Antifungal activity against Candida lusitaniae 6936 URA3[D95V] derived null mutant fur1delta::URA3 by microdilution assay
Clavispora lusitaniae [5] = experiment: Antifungal activity against Candida lusitaniae 6936 revertant fcy2delta::[FCY2-URA3] by microdilution assay
Clavispora lusitaniae [6] = experiment: Antifungal activity against Candida lusitaniae 6936 revertant fcy1delta::[FCY1-URA3] by microdilution assay

SMILES: O=c1[nH]cc(F)c(=O)[nH]1 [FLUOROURACIL]
- MIC (Clavispora lusitaniae [1]): ≤ 0.5 µg/mL
- MIC (Clavispora lusitaniae [2]): ≤ 0.5 µg/mL
- MIC (Clavispora lusitaniae [3]): ≤ 0.5 µg/mL
- MIC (Clavispora lusitaniae [4]): ≥ 512 µg/mL
- MIC (Clavispora lusitaniae [5]): ≤ 0.5 µg/mL
- MIC (Clavispora lusitaniae [6]): ≤ 0.5 µg/mL

SMILES: OC(Cn1cncn1)(Cn1cncn1)c1ccc(F)cc1F [FLUCONAZOLE]
- MIC (Clavispora lusitaniae [1]): 2 µg/mL (≈ 6.53 µM)
- MIC (Clavispora lusitaniae [2]): 2 µg/mL (≈ 6.53 µM)
- MIC (Clavispora lusitaniae [3]): 2 µg/mL (≈ 6.53 µM)
- MIC (Clavispora lusitaniae [4]): 2 µg/mL (≈ 6.53 µM)
- MIC (Clavispora lusitaniae [5]): 2 µg/mL (≈ 6.53 µM)
- MIC (Clavispora lusitaniae [6]): 2 µg/mL (≈ 6.53 µM)

SMILES: Nc1nc(=O)[nH]cc1F [FLUCYTOSINE]
- MIC (Clavispora lusitaniae [1]): 128 µg/mL (≈ 992 µM)
- MIC (Clavispora lusitaniae [2]): ≤ 0.5 µg/mL
- MIC (Clavispora lusitaniae [3]): 64 µg/mL (≈ 496 µM)
- MIC (Clavispora lusitaniae [4]): ≥ 512 µg/mL
- MIC (Clavispora lusitaniae [5]): ≤ 0.5 µg/mL
- MIC (Clavispora lusitaniae [6]): ≤ 0.5 µg/mL
